Data as given in patent publication US5182367A, “5-lipoxygenase activating protein” (priority 1990, dated 1993).

Legend:
[1] = test system: leukotriene biosynthesis; assay: leukotriene biosynthesis / production (cells not specified); type: cell-based; conditions: result in words, cells not given
[2] = molecular target: T1, 18kD protein (FLAP) (Homo sapiens, UniProt P20292); assay: photoaffinity labelling of the 18kD protein with 125I-L-669,083; type: binding; conditions: for inhibition of photoaffinity labelling of the 18kD protein: 125I-L-669,083 probe, result in words
T1 construct: Incubation of ^125 I-L-669,083 with neutrophil extracts followed by irradiation with ultraviolet light; from tissue; host or cells: neutrophil extracts / human leukocyte membranes (endogenous protein)
T1 sequence (P20292 1-161): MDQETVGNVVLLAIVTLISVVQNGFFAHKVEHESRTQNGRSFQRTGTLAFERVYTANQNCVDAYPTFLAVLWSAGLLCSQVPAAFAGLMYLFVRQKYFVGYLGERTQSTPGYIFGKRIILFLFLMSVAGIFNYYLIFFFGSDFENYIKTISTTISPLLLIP
From the text: The cellular target of MK-886 was identified by its specific labelling with an I^125 radio-labelled photoaffinity probe (^125 I-L-669,083) and by its retention on agarose gels to which analogues of MK-886 had been bound. […] This protein co-migrated on SDS-polyacrylamide gels with the photoaffinity-labelled protein. The 18kD protein comprised a minor portion of the […]-centrifugation pellet protein and was essentially absent from other cellular fractions.
A polyclonal rabbit antibody was prepared to the N-terminal 39 amino acids of the 18kD protein. The peptide immunogen was prepared by fusion of the DNA sequence coding for the peptide to the N-terminus of Che Y protein, and its expression in and purification from E. coli (Gan, Z. R., Gene 79, 159-166 (1989)). […] When human leukocyte membranes labelled with the ^125 I-L-669,083 photoaffinity probe were immunoprecipitated with the antipeptide antibody, a single labelled protein of Mr 18,000 was observed which was absent in membranes labelled in the presence of competing MK-886.

[3] = molecular target: T2, 18kD protein (FLAP) (Rattus norvegicus, UniProt P20291); assay: elution of the 18kD protein from MK-886 analogue affinity columns; type: binding, rat and human; conditions: solubilized neutrophil membranes, result in words
T2 sequence (P20291 1-161): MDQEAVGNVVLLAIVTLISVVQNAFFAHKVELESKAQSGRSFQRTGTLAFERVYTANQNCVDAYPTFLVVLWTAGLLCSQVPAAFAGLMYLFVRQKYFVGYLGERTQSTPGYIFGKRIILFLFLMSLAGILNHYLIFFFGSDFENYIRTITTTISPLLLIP
Procedure: Rat peritoneal neutrophils (Ham, E. A. et al. Proc. Natn. Acad. Sci. USA 80, 4349-4353 (1983)) and human peripheral neutrophils (Boyum, A. Scand. J. Clin. Lab. Invest. (suppl. 97) 21, 77-89 (1968)) at 10^8 cells/ml were sonicated in 50 mM Tris-HCl buffer, pH 7.4, 140 mM NaCl, 2 mM EDTA, 1 mM DTT (dithiotreitol), 10% glycerol (homogenization buffer), together with the protease inhibitors 1 mM phenylmethylsulphonyl fluoride, […], and 10 mM furyl saccharine. After removal of 1000 g and 10,000 g-centrifugation pellets, the 100,000 g pellet was resuspended (3 mg/ml) in the homogenization buffer.
To purify FLAP, the microsome suspension was solubilized on ice for 30 minutes in 50 mM Tris-HCl buffer, pH 7.4, with 140 mM NaCl, 0.5 mM DTT, 5% glycerol and 1% CHAPS detergent (3-[(3-cholamidopropyl)-dimethylammonio]-1-propanesulfonate). After centrifugation for 10 minutes at 30,000 g, the supernatant was applied to 3 ml columns (6×10^9 cell equivalents per column) containing the affinity gel which was prepared by coupling MK-886 in THF (tetrahydrofuran) to pre-activated Affi-Gel 10, capping with ethanolamine,and washing with isopropanol. The columns were washed with […] solubilization buffer for 16 hours at 5° C. and eluted for 1 hour with four column volumes of buffer containing 100 μM MK-886.

[4] = test system: rat peritoneal neutrophils; assay: A23187-stimulated LT synthesis in neutrophils; type: cell-based
Procedure: (§1) When the parental osteosarcoma 143 cells or the cells expressing 5-LO or FLAP alone were treated with the Ca^2+ ionophore A23187, no arachidonic acid metabolites were detected. […] A23187-treated rat neutrophils produced these products, as well as 5-HETE and the LTB4 metabolites 20-hydroxy LTB4 and 20-carboxy LTB4. The 5-LO/FLAP cell line produced only 14% of the neutrophil level of LTB4 (0.15 nmol/mg protein versus 1.1 nmol/mg protein), while it produced 41% as much of the LTA4 hydrolysis products (0.064 nmol 6-trans LTB4 and 0.059 nmol 6-trans-12-epi LTB4 /mg protein versus 0.18 nmol 6-trans LTB4 and 0.12 nmol 6-trans-12-epi LTB4 /mg protein).
(§2) Normal rat peritoneal neutrophils were prepared as described by Ham, E. A. et al. (1983, supra). Osteosarcoma 143 cell lines expressing 5-LO were isolated by the method of Rouzer, C. A. et al., J. Biol. Chem. 263, 10135-10140 (1988). The expression vector used contains the CMV immediate early promoter which drives the expression of the 5-LO gene, a hygromycin resistance gene as a selectable marker, and the EBV origin of replication (Rouzer et al., supra). An EcoRI fragment derived from the RBL-1 cDNA clone containing the cDNA insert for rat FLAP was cloned into the EcoRI site of the vector pSVLneo (Dixon, R. A. F. et al., Nature 326, 73-79 (1987)). […]

[5] = test system: osteosarcoma 143 cell line expressing 5-LO and FLAP; assay: A23187-stimulated LT synthesis in the 5-LO/FLAP cell line; type: cell-based, human
Procedure: as §1, §2

[6] = test system: leukotriene synthesis in human leukocytes; assay: inhibition of leukotriene synthesis in human leukocytes; type: cell-based; conditions: Leukocyte; human leukocytes at similar protein concentrations

Row | Structure (SMILES) | inhibition of leukotriene biosynthesis / production [1] | inhibition of photoaffinity labelling of the 18kD protein [2] | elution of the 18kD protein from affinity columns/gels [3] | LT synthesis blocked [4] | LT synthesis blocked [5] | IC50 [2] [nM] | IC50 [6] [nM]
1 | COc1ccc2c(c1)c(C(C)C(=O)O)c(C)n2Cc1ccc(Cl)cc1 [L-583,916, 2-(1-p-chlorobenzyl-5-methoxy-2-methylindol-3-yl)propionic acid] | do not inhibit leukotriene biosynthesis | did not inhibit photoaffinity labelling | nor did they elute this protein |  |  |  | 
2 | CN1CCN(CCCN2c3ccccc3Sc3ccc(C(F)(F)F)cc32)CC1 [trifluoroperazine] | inhibitory effects on leukotriene production | nor inhibited photoaffinity labelling |  |  |  |  | 
3 | CC(Cc1ccc(O)c(O)c1)C(C)Cc1ccc(O)c(O)c1 (stereo not drawn) [nordihydroguairaretic acid] | inhibitory effects on leukotriene production | nor inhibited photoaffinity labelling | neither eluted the 18kD protein |  |  |  | 
4 | O=c1ccc2nc3ccccc3sc-2c1Cl [L-615,919, 4-chloro-3H-phenothiazin-3-one] |  |  |  | blocked LT synthesis | blocked LT synthesis |  | 
5 | Clc1ccc(C(c2ccc(Cl)cc2)n2cc[n+](CC(OCc3ccc(Cl)cc3Cl)c3ccc(Cl)cc3Cl)c2)cc1 (stereo not drawn) [calmidazolium] | inhibitory effects on leukotriene production | nor inhibited photoaffinity labelling | neither eluted the 18kD protein |  |  |  | 
6 | COc1ccc2nc3cc(OC)c(=O)c(Br)c-3sc2c1 [L-651,392] | inhibitory effects on leukotriene production | nor inhibited photoaffinity labelling | neither eluted the 18kD protein |  |  |  | 
7 | CC(C)c1ccc2c(c1)c(SC(C)(C)C)c(CC(C)(C)C(=O)O)n2Cc1ccc(Cl)cc1 [MK-886, 3-[1-(4-chlorobenzyl)-3-t-butylthio-5-isopropylindol-2-yl]-2,2-dimethylpropanoic acid] |  |  | eluted by MK-886 | blocked LT synthesis | blocked LT synthesis | 80 | 100
